{"source": "paper PMC2263054", "about": "“Functional evolution of the vitamin D and pregnane X receptors” (BMC Evolutionary Biology, 2007)", "key": {"[1]": {"molecular_target": "T1, Sea lamprey VDR (Petromyzon marinus, UniProt Q7ZZY9)", "T1 sequence (Q7ZZY9 92-406)": "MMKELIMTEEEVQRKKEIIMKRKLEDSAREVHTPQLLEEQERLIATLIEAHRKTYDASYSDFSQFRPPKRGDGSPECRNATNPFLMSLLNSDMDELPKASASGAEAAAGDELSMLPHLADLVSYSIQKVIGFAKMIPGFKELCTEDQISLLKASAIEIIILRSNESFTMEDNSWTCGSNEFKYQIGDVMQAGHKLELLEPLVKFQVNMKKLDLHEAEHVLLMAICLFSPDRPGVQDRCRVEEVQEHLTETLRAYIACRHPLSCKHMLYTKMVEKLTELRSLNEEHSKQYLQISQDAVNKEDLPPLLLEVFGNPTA", "type": "cell-based", "conditions": "HepG2-NTCP cells, luciferase reporter; unit not given; also cells saying No effect"}, "[2]": {"test_system": "MDR1 (tentatively classified as ABCB5 in zebrafish)", "assay": "zebrafish in vivo liver transcription, semi-quantitative RT-PCR: MDR1", "description": "Adult zebrafish were purchased from a commercial fish supplier and acclimatized for at least two-weeks in 20 L tanks with flow-through freshwater at 22°C. A single dose of 15 mg/kg of 5α-cyprinol, 5β-cyprinol 27-sulfate, 5α-scymnol or 5β-scymnol-27 sulfate, dissolved in saline, was injected intraperitoneally. A control group was injected with saline. After 48 hr, the animals were decapitated and livers of three fish (n = 5 each group) were removed, pooled and weighed, totalizing 15 fish per group. Fish were not fed throughout the experimental period. […].\nTo study the transcription of CYP3C1, ABCB5, PXR, GAPDH and β-actin genes in zebrafish, initial fragments of these genes were identified (Genbank: AW202769, Genbank: BQ284593, Genbank: AAM22215, Genbank: BC083506, Genbank: AF057040, respectively). The PCR primers for CYP3C1 were designed using MacVector Software and primers for MDR1 were designed using Primer 3 Software (Whitehead Institute for Biomedical Research; [75]). Primer pairs for amplifying CYP3C1 fragment were 5'-[…]-3' (sense) and 5'-[…]-3' (antisense) and for amplifying ABCB5 were 5'-[…]-3' (sense) and 5'-[…]-3' (antisense). The PCR primers for PXR were 5'-[…]-3' (sense) and 5'-[…]-3' (antisense), for amplifying GAPDH were 5'-[…]-3' (sense) and 5' […] 3' (antisense) and for β-actin were 5'-[…]-3' (sense) and 5'-[…]-3' (antisense). RNA was isolated using Trizol (Invitrogen) according to manufacturer's instructions. Purity and concentration of RNA of each sample were verified at 260 nm. The RNA integrity was checked by non-denaturing gel electrophoresis using 1 μg of total RNA in each sample.\nTwo micrograms of total RNA were reversed transcribed using Ominiscript RT Kit (Qiagen, Valencia, CA, USA). cDNA concentration was checked at 260 nm, and the amount adjusted to 1 μg to perform semi-quantitative RT-PCR. The expected size of the PXR, Cyp3C1, abcb5, GAPDH and β-actin fragments were 577, 477, 218, 234 and 550 bp, respectively. Biotools DNA polymerase (Biotools B&M Labs, S.A., Madrid, Spain) kit was used for the PCR reaction using a thermocycler Personal Mastercycler (Eppendörf) with the following PCR program: 5 cycles of 94°C for 5 s, 72°C for 35 s; 5 cycles of 94°C for 5 s, 70°C for 10 s, 72°C for 35 s; and 23, 24, 35, 15 and 24 cycles (PXR, Cyp3C1, abcb5, GAPDH and β-actin, respectively) of 94°C for 5 s, 61, 54, 48, 49 and 61°C for 10 s (PXR, Cyp3C1, abcb5, GAPDH and β-actin, respectively), and 72°C for 35 s. The PXR, CYP3C1, ABCB5 and GAPDH transcript levels were quantified using Gel-Quant™ (Multiplexed Biotechologies) and β-actin was used to normalize the data. The Shapiro-Wilk W test was used to evaluate normality. When data were parametric the analysis was performed using Student t test; otherwise Mann Whitney U test was applied. […]"}, "[3]": {"test_system": "Ciona VDR/PXR", "conditions": "HepG2-NTCP cells, luciferase reporter; unit not given; also cells saying No effect"}, "[4]": {"test_system": "zebrafish PXR", "conditions": "cited from earlier work"}, "[5]": {"molecular_target": "T2, Xenopus laevis VDR (Xenopus laevis, UniProt O13124)", "T2 sequence (O13124 90-422)": "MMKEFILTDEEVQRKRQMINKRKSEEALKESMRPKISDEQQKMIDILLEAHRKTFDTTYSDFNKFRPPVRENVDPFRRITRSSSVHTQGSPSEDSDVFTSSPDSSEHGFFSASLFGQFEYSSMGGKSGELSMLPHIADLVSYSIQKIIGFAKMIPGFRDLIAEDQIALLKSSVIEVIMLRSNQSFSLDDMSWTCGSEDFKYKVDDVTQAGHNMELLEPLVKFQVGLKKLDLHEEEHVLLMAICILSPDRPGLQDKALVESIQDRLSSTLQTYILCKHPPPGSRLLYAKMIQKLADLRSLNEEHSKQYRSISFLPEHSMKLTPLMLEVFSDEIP", "assay": "luciferase reporter transactivation assay in HepG2-NTCP cells, GAL4/xlVDR LBD chimera with tk-UAS-Luc", "type": "cell-based", "conditions": "HepG2-NTCP cells, luciferase reporter; unit not given; also cells saying No effect"}, "[6]": {"molecular_target": "T3, Human VDR (Homo sapiens, UniProt P11473)", "T3 sequence (P11473 1-427)": "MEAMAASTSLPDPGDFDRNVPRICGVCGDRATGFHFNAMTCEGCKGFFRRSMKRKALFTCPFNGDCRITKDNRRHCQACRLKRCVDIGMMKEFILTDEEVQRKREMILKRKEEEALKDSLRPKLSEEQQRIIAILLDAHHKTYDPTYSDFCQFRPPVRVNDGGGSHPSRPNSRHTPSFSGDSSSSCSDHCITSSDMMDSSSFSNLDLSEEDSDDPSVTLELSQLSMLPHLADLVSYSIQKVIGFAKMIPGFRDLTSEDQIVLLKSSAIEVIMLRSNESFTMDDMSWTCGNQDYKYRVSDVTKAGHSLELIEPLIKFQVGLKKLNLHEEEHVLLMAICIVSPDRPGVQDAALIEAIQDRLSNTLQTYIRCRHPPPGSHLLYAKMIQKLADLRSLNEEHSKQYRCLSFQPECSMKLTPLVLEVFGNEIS", "assay": "luciferase reporter transactivation assay in HepG2-NTCP cells, full-length hVDR with CYP3A4-PXRE-Luc", "conditions": "HepG2-NTCP cells, luciferase reporter; unit not given; also cells saying No effect"}, "[7]": {"molecular_target": "T4, Zebrafish VDR (Danio rerio, UniProt Q9PTN2)", "T4 sequence (Q9PTN2 121-453)": "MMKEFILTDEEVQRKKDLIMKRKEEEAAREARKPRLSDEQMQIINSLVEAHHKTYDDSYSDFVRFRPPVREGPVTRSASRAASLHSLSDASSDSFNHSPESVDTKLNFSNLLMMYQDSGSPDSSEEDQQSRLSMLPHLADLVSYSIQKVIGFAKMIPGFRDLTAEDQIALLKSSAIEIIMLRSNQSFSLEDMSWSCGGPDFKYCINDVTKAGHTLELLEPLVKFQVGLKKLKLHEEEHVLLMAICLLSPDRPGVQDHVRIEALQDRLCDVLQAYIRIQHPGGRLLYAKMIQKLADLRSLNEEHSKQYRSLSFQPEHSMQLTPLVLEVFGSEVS", "assay": "luciferase reporter transactivation assay in HepG2-NTCP cells, GAL4/zfVDR LBD chimera with tk-UAS-Luc", "type": "cell-based", "conditions": "HepG2-NTCP cells, luciferase reporter; unit not given; also cells saying No effect"}}, "note": "Like-named read-outs stand apart in the source and are kept apart here."}
{"compound": "C[C@H](CCCC(CO)COS(=O)(=O)O)[C@H]1CC[C@H]2[C@@H]3[C@H](O)C[C@H]4C[C@H](O)CC[C@]4(C)[C@H]3C[C@H](O)[C@]12C", "note": "(stereo partly drawn) [5α-Cyprinol 27-sulfate]", "values": [{"measurement": "Sea lamprey VDR EC50 ± SD", "setting": "[1]", "value": "No effect"}, {"measurement": "liver transcription of MDR1 (ABCB5)", "setting": "[2]; zebrafish, 15 mg/kg intraperitoneally, single dose, 48 hr", "value": "2.29 ± 0.75 arbitrary units normalized to β-actin"}, {"measurement": "Ciona VDR/PXR EC50 ± SD", "setting": "[3]", "value": "No effect"}, {"measurement": "activity at recombinant zebrafish PXR", "setting": "[4]; ref [29],[53]", "value": "efficacious activator of recombinant zebrafish PXR"}, {"measurement": "Xenopus VDR EC50 ± SD", "setting": "[5]", "value": "No effect"}, {"measurement": "Human VDR EC50 ± SD", "setting": "[6]", "value": "No effect"}, {"measurement": "Zebrafish VDR EC50 ± SD", "setting": "[7]", "value": "No effect"}]}
{"compound": "C[C@H](CCCC(CO)CO)[C@H]1CC[C@H]2[C@@H]3[C@H](O)C[C@H]4C[C@H](O)CC[C@]4(C)[C@H]3C[C@H](O)[C@]12C", "note": "[5α-Cyprinol, 5α-cholestan-3α,7α,12α,26,27-pentol]", "values": [{"measurement": "Sea lamprey VDR EC50 ± SD", "setting": "[1]", "value": "No effect"}, {"measurement": "liver transcription of MDR1 (ABCB5)", "setting": "[2]; ip, 15 mg/kg, 48 h", "value": "2.00 ± 1.00 arbitrary units normalized to β-actin"}, {"measurement": "Ciona VDR/PXR EC50 ± SD", "setting": "[3]", "value": "No effect"}, {"measurement": "activity at recombinant zebrafish PXR", "setting": "[4]", "value": "both inactive at recombinant zebrafish PXR"}, {"measurement": "Xenopus VDR EC50 ± SD", "setting": "[5]", "value": "No effect"}, {"measurement": "Human VDR EC50 ± SD", "setting": "[6]", "value": "No effect"}, {"measurement": "Zebrafish VDR EC50 ± SD", "setting": "[7]", "value": "No effect"}]}
